# Like-named read-outs stand apart in the source and are kept apart here.
# Columns and labels:
# [1] = tested on: cancer stem cells; assay: Survival rate of cancer stem cells after test compound is added (flow cytometry, Annexin V-FITC/PI, clinical specimen); assay type: cell-based, patient; conditions: Homo sapiens, 18 h
# From the text: (§1) Take fresh or cryopreserved clinical specimen (acute myelogenous leukemia (AML, marker is CD34^+/CD38^+), chronic myelogenous leukemia (CML, Ph+/CD34+/CXCR4+), chronic lymphocytic leukemia (CLL,CD133+/CD19−/CD38−), skin cancer (CD34+), breast cancer (CD44+/CD24−/ESA+), ovarian cancer (CD44+/CD117+), brain tumor (CD133+) prostate cancer (CD44+/CD24−), head-neck squamous cell carcinoma (CD44+), laryngeal cancer (CD133+), pancreatic cancer (ESA+/CD44+/CD24+), retinoblastoma (ABCG2/ALDH1), Children hepatoblastoma (CD34+/THY1+/c-kit+), liver cancer (CD133+), malignant melanoma (CD133+), colorectal cancer (EpCAM^high/CD44+), colon adenocarcinoma (CD44^high), glioma (ABCG-2/BCRP1), gastrointestinal tumor (ABCG-2/BCRP1), nasopharynx cancer (ABCG2), brain glioma (Dlk-1/Pref-1), gastric cancer (CD45+), lung adenocarcinoma (Sca-1/CD45-/Pecam-/CD34+), lung cancer (CD133+CD34+CD44+)) of patient. Take the acute myelogenous leukemia as the example, conduct density gradient centrifugation with Ficoll and take out the middle mononuclear cells, re-suspend it with serum-free IMDM after centrifuged. Adjust the concentration of cells into 1×10^6/mL and lay 24-well plate with 1 mL in each well, and then treat 18 hours with the compound to select with corresponding concentration. Collect the cells and centrifuge them at 1500 rps for 8 minutes, re-suspend the precipitation with […], mark the antibodies related to leukemia stem cell, avoid light to incubate 30 minutes at room temperature and then centrifuge it at 1500 rps, then wash away the unbound antibody CD34^+CD38^+. Re-suspend it with 100 μl 1× Binding Buffer and add respectively 5 μl Annexin V-FITC and PI, then avoid light to incubate 15 minutes before add 200 μl 1× Binding Buffer, then use flow cytometry to examine the marked apoptosis within one hour.
# [2] = tested on: normal cells; assay: Survival rate of normal cells after test compound is added (flow cytometry, Annexin V-FITC/PI); assay type: cell-based; conditions: 18 h
# From the text: as §1
# [3] = tested on: PGE2 secreted by synoviocyte; assay: Content of PGE2 in culture supernatant of synoviocyte of RA model rats given test compound; assay type: in vivo; conditions: rat RA model, dose 30 mg/kg.2d; normal control 8.34 ± 1.29, NaCl 32.44 ± 10.32
# From the text: (§2) Take Compound 1-50 prepared as per the method according to the present invention and employ the method provided in Reference to prepare model, group drugs and prepare culture supernatant of rat synoviocyte.
# (§3) Employ the method provided in Reference to investigate the effects of the test compounds on the synoviocyte to secrete TNF-α and PGE2. Employ the method provided in Reference to investigate the effects of the test compounds on the synoviocyte to secrete IL-1β.
# (§4) The experimental data of the test compound 1-50 at a dose of 30 mg/kg.2d as well as the normal control and NaCl group are as follows: […]
# [4] = tested on: IL-1β secreted by synoviocyte; assay: Content of IL-1β in culture supernatant of synoviocyte of RA model rats given test compound; assay type: in vivo; conditions: rat RA model, dose 30 mg/kg.2d; normal control 0.16 ± 0.034, NaCl 0.49 ± 0.136
# From the text: as §2, §3, §4
# [5] = tested on: TNF-α secreted by synoviocyte; assay: Content of TNF-α in culture supernatant of synoviocyte of RA model rats given test compound; assay type: in vivo; conditions: rat RA model, dose 30 mg/kg.2d; normal control 0.38 ± 0.027, NaCl 0.74 ± 0.098
# From the text: as §2, §3, §4
# [6] = Head and neck squamous cell carcinomas
# [7] = read-out: Survival rate (%) All cells (Stem cells and ordinary cells)
# [8] = read-out: Survival rate (%) Stem cells
structure (smiles),measurement,setting,value
[2H][C@@]1(CN(C)C)C(=O)O[C@@H]2[C@@H]3[C@@H](CCC34CC4)C3(CC[C@H]21)CC3 [Compound 46],viability at 10 µM,[1]; AML,82%
same,viability at 20 µM,[1]; AML,74%
same,viability at 10 µM,[1]; Brain glioma,88%
same,viability at 20 µM,[1]; Brain glioma,81%
same,viability at 10 µM,[1]; Brain tumor,88%
same,viability at 20 µM,[1]; Brain tumor,81%
same,viability at 10 µM,[1]; Breast cancer,82%
same,viability at 20 µM,[1]; Breast cancer,76%
same,viability at 10 µM,[1]; CLL,82%
same,viability at 20 µM,[1]; CLL,76%
same,viability at 10 µM,[1]; CML,85%
same,viability at 20 µM,[1]; CML,79%
same,viability at 10 µM,[1]; Children hepatoblastoma,84%
same,viability at 20 µM,[1]; Children hepatoblastoma,78%
same,viability at 10 µM,[1]; Colon adenocarcinoma,84%
same,viability at 20 µM,[1]; Colon adenocarcinoma,74%
same,viability at 10 µM,[1]; Colorectal cancer,86%
same,viability at 20 µM,[1]; Colorectal cancer,78%
same,viability at 10 µM,[1]; Gastric cancer,87%
same,viability at 20 µM,[1]; Gastric cancer,76%
same,viability at 10 µM,[1]; Gastrointestinal tumor,82%
same,viability at 20 µM,[1]; Gastrointestinal tumor,76%
same,viability at 10 µM,[1]; Glioma,87%
same,viability at 20 µM,[1]; Glioma,75%
same,viability at 10 µM,[1]; [6],84%
same,viability at 20 µM,[1]; [6],78%
same,viability at 10 µM,[1]; Laryngeal cancer,81%
same,viability at 20 µM,[1]; Laryngeal cancer,75%
same,viability at 10 µM,[1]; Liver cancer,81%
same,viability at 20 µM,[1]; Liver cancer,75%
same,viability at 10 µM,[1]; Lung adenocarcinoma,85%
same,viability at 20 µM,[1]; Lung adenocarcinoma,79%
same,viability at 10 µM,[1]; Lung cancer,82%
same,viability at 20 µM,[1]; Lung cancer,76%
same,viability at 10 µM,[1]; Malignant melanoma,85%
same,viability at 20 µM,[1]; Malignant melanoma,77%
same,viability at 10 µM,[1]; Nasopharynx cancer,79%
same,viability at 20 µM,[1]; Nasopharynx cancer,72%
same,viability at 10 µM,[1]; Ovarian cancer,79%
same,viability at 20 µM,[1]; Ovarian cancer,72%
same,viability at 10 µM,[1]; Pancreatic cancer,85%
same,viability at 20 µM,[1]; Pancreatic cancer,79%
same,viability at 10 µM,[1]; Prostate cancer,87%
same,viability at 20 µM,[1]; Prostate cancer,76%
same,viability at 10 µM,[1]; Retinoblastoma,82%
same,viability at 20 µM,[1]; Retinoblastoma,73%
same,viability at 10 µM,[1]; Skin cancer,85%
same,viability at 20 µM,[1]; Skin cancer,77%
same,viability at 10 µM,[2]; [7],95%
same,viability at 10 µM,[2]; [8],94%
same,viability at 20 µM,[2]; [7],94%
same,viability at 20 µM,[2]; [8],92%
same,Content of PGE2 in culture supernatant of synoviocyte (x ± s),[3],24.74 ± 2.64 ng/mL
same,Content of IL-1β in culture supernatant of synoviocyte (x ± s),[4],0.36 ± 0.067 ng/mL
same,Content of TNF-α in culture supernatant of synoviocyte (x ± s),[5],0.56 ± 0.034 ng/mL
